Measurements from article PMC4162403 (Angewandte Chemie (International ed. in English), 2010).

Target: TNF-α (Homo sapiens, UniProt P01375)
Experiment: inhibition of TNFR-1 binding to TNF-α, side-by-side experiment
Conditions: read-out: % inhibition at 10 μM

Sequence of TNF-α (P01375 77-233): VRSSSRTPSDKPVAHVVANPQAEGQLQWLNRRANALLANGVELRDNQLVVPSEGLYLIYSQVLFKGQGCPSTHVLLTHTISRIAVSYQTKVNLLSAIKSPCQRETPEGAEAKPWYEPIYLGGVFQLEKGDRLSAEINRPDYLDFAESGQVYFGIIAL

inhibition at 10 µM: 34%
Compound: Cc1cc2occ(CN(C)CCN(C)Cc3cn(-c4cccc(C(F)(F)F)c4)c4ccccc34)c(=O)c2cc1C [SPD304]
